Literature values as cited in patent US7575768B2, “Dietary supplements and prepared foods containing triglyceride-recrystallized non-esterified phytosterols” (Brandeis University, priority 2005, dated 2009).

System: humans

With `CC[C@H](CC[C@@H](C)[C@H]1CC[C@H]2[C@@H]3CC=C4C[C@@H](O)CC[C@]4(C)[C@H]3CC[C@]12C)C(C)C` [beta sitosterol] as the molecule, how does the “lowering of serum cholesterol” value (12-18 g per day in divided doses, males with atherosclerosis) read?
The value was 15-20%.

For `CC[C@H](CC[C@@H](C)[C@H]1CC[C@H]2[C@@H]3CC=C4C[C@@H](O)CC[C@]4(C)[C@H]3CC[C@]12C)C(C)C` [sitosterol], which “decrease of plasma cholesterol level” value (9-18 grams per day, coarse powdered form) is on record?
Its value is “approximately 15%”.
